Patent publication US20230404080A1, “A METHOD OF CONTROLLING HERBICIDE RESISTANT WEEDS” (UPL Corporation Limited, priority 2020, published 2023)

System: Spermacoce verticillate
Assay: Example 1 trial: herbicidal combinations on Spermacoce verticillate resistant to Group 4 and Group 9 herbicides
Type: in vivo
Conditions: for % weed control at 14 DA-B: 14 days after sequential application B, B applied 15 days after A, scale 0 (no damage) to 100 (complete destruction) vs untreated control, rates per Table 1; for control of S. verticillate weeds (in words): Example 1, sequential application used after glyphosate+triclopyr at 15 DA-A
Experimental: Trials were carried out for evaluating the effect of herbicidal combinations on target weeds of Spermacoce verticillate resistant to herbicides belonging to Group 4 and Group 9. The evaluation for the damage on undesired weeds caused by the present compositions was carried out using a scale from 0 to 100%, compared to the untreated control plants. Here, 0 means no damage and 100 means complete destruction of weed. In the following experiments, the herbicidal activity for the herbicidal combinations was assessed till 28 days after treatment (application A).
In this trial, time T was application time, application A was performed first and at 15 days, application B was performed out in treatments with sequential application. The tested herbicides were sourced from the formulations readily available.

SMILES | % weed control at 14 DA-B | control of S. verticillate weeds (in words)
O=C(O)COc1nc(Cl)c(Cl)cc1Cl [Triclopyr (A), Triclopyr] | 42.5% | do not efficiently control
O=C(O)CNCP(=O)(O)O [Glyphosate (A), N-(phosphonomethyl)glycine] | 22% | do not efficiently control
